Measurements published in paper PMC7955893 (Journal of medicinal chemistry, 2019).

Tests used:
NNMT [1] = biological target: T1, NNMT (Homo sapiens, UniProt P40261); test: Cellular thermal shift assay; type: binding; details: K562 cell lysate; various concentrations; heated at 57 °C
T1 sequence (P40261 1-264): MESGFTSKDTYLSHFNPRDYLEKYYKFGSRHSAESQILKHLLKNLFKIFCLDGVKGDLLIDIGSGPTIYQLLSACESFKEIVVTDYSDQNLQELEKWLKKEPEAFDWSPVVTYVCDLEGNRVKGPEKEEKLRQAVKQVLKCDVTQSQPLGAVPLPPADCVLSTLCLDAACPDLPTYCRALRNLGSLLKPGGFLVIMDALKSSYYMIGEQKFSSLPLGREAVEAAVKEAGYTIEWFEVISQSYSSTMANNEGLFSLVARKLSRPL

Caco-2 = test: A-B permeability testing; details: Caco-2, pH 6.5/7.4
[2] = test system: MNAM levels in U2OS cells; test: MNAM measurement in U2OS cells by LC-MS/MS; type: cell-based, human; details: 24 h incubation
U2OS cells = test: CellTiter-Glo luminescent cell viability; type: cell-based, human; details: 48 h, 100 μM dose
NNMT [3] = biological target: T1, NNMT; test: Fluorescence-based continuous NNMT inhibition assay; type: biochemical; details: for NNMT inhibition (in words): qualitative SAR statement

Q: What does the source list for `NC(=O)c1cccc(C#C[C@@H](CC[C@H](N)C(=O)O)C[C@H]2O[C@@H](n3cnc4c(N)ncnc43)[C@H](O)[C@@H]2O)c1` [NS1, (2S,5S)-2-amino-5-(((2R,3S,4R,5R)-5-(6-amino-9H-purin-9-yl)-3,4-dihydroxytetrahydrofuran-2-yl)methyl)-7-(3-carbamoylphenyl)hept-6-ynoic acid]?
A: isothermal dose response CETSA, stabilization of NNMT (in words) (NNMT [1]): dose-dependent manner; A-B permeability (in words) (Caco-2): limited permeability; ability to decrease MNAM levels in U2OS cells (in words) [2]: the effects were modest; cytotoxicity to U2OS cells (in words) (U2OS cells): None of the compounds tested (NS1, 21, 23, 24, 25) were toxic

Q: `Nc1ncnc2c1ncn2[C@@H]1O[C@H](CCCC[C@H](N)C(=O)O)[C@@H](O)[C@H]1O` [compound 11, (S)-2-amino-6-((2R,3S,4R,5R)-5-(6-amino-9H-purin-9-yl)-3,4-dihydroxytetrahydrofuran-2-yl)hexanoic acid] was tested. Which “NNMT inhibition (in words)” value (NNMT [3]) did it give?
A: The value was “poor NNMT inhibitor”.

Q: `C#C[C@@H](CC[C@H](N)C(=O)O)C[C@H]1O[C@@H](n2cnc3c(N)ncnc32)[C@H](O)[C@@H]1O` [compound 12, (2S,5S)-2-amino-5-(((2R,3S,4R,5R)-5-(6-amino-9H-purin-9-yl)-3,4-dihydroxytetrahydrofuran-2-yl)methyl)hept-6-ynoic acid] was tested. Which “NNMT inhibition (in words)” value (NNMT [3]) did it give?
A: Its value is “equally poor NNMT inhibitors”.

Q: For `Nc1ncnc2c1ncn2[C@@H]1O[C@H](C[C@@H](C#Cc2ccccc2)CC[C@H](N)C(=O)O)[C@@H](O)[C@H]1O` [compound 13, (2S,5S)-2-amino-5-(((2R,3S,4R,5R)-5-(6-amino-9H-purin-9-yl)-3,4-dihydroxytetrahydrofuran-2-yl)methyl)-7-phenylhept-6-ynoic acid], which “NNMT inhibition (in words)” value (NNMT [3]) is on record?
A: The value was “equally poor NNMT inhibitors”.

Q: What does the source list for `NC(=O)c1cccc(CC[C@@H](CC[C@H](N)C(=O)O)C[C@H]2O[C@@H](n3cnc4c(N)ncnc43)[C@H](O)[C@@H]2O)c1` [compound 15, (2S,5S)-2-amino-5-(((2R,3S,4R,5R)-5-(6-amino-9H-purin-9-yl)-3,4-dihydroxytetrahydrofuran-2-yl)methyl)-7-(3-carbamoylphenyl)heptanoic acid]?
A: fold more potent than MS2756 in terms of Ki (NNMT [3]; relative to MS2756): approximately 200 fold; fold weaker inhibitor than NS1 in terms of Ki (NNMT [3]; relative to NS1): ~10 fold

Q: `NC(=O)c1cccc(CC[C@H](CC[C@H](N)C(=O)O)C[C@H]2O[C@@H](n3cnc4c(N)ncnc43)[C@H](O)[C@@H]2O)c1` [compound 16, (2S,5R)-2-amino-5-(((2R,3S,4R,5R)-5-(6-amino-9H-purin-9-yl)-3,4-dihydroxytetrahydrofuran-2-yl)methyl)-7-(3-carbamoylphenyl)heptanoic acid] was tested. Which “fold difference in Ki between NS1-alkane and its C6’ epimer” value (NNMT [3]; relative to NS1-alkane (15)) did it give?
A: Its value is ~ 20 fold.

Q: With `NC(=O)c1cccc(C#CCC[C@H]2O[C@@H](n3cnc4c(N)ncnc43)[C@H](O)[C@@H]2O)c1` [compound 17, 3-(4-((2R,3S,4R,5R)-5-(6-amino-9H-purin-9-yl)-3,4-dihydroxytetrahydrofuran-2-yl)but-1-yn-1-yl)benzamide] as the compound, how does the “fold weaker inhibitor than NS1 in terms of Ki” value (NNMT [3]; relative to NS1) read?
A: The value was ~ 500 fold.

Q: Which “NNMT inhibition (in words)” value (NNMT [3]) does the source give for `NC(=O)c1cccc(C#C[C@@H]2C[C@H]2[C@H]2O[C@@H](n3cnc4c(N)ncnc43)[C@H](O)[C@@H]2O)c1` [compound 18, 3-(((1R,2R)-2-((2R,3S,4R,5R)-5-(6-amino-9H-purin-9-yl)-3,4-dihydroxytetrahydrofuran-2-yl)cyclopropyl)ethynyl)benzamide] here?
A: The value was “proved detrimental”.

Q: `CO[C@@H]1O[C@H](C[C@@H](C#Cc2cccc(C(N)=O)c2)CC[C@H](N)C(=O)O)[C@@H](O)[C@H]1O` [compound 19, (2S,5S)-2-amino-7-(3-carbamoylphenyl)-5-(((2R,3S,4R,5R)-3,4-dihydroxy-5-methoxytetrahydrofuran-2-yl)methyl)hept-6-ynoic acid] was tested. Which “NNMT inhibition (in words)” value (NNMT [3]) did it give?
A: Its value is “completely abrogated NNMT inhibition”.

Q: `NC(=O)c1cccc(C#C[C@@H](CCCC(=O)O)C[C@H]2O[C@@H](n3cnc4c(N)ncnc43)[C@H](O)[C@@H]2O)c1` [compound 20, (S)-5-(((2R,3S,4R,5R)-5-(6-amino-9H-purin-9-yl)-3,4-dihydroxytetrahydrofuran-2-yl)methyl)-7-(3-carbamoylphenyl)hept-6-ynoic acid] was tested. Which “NNMT inhibition (in words)” value (NNMT [3]) did it give?
A: Its value is “poor NNMT inhibitor”.

Q: What does the source list for `NCCC[C@H](C#Cc1cccc(C(N)=O)c1)C[C@H]1O[C@@H](n2cnc3c(N)ncnc32)[C@H](O)[C@@H]1O` [compound 21, 3-((S)-6-amino-3-(((2R,3S,4R,5R)-5-(6-amino-9H-purin-9-yl)-3,4-dihydroxytetrahydrofuran-2-yl)methyl)hex-1-yn-1-yl)benzamide]?
A: ability to decrease MNAM levels in U2OS cells (in words) [2]: the effects were modest; cytotoxicity to U2OS cells (in words) (U2OS cells): None of the compounds tested (NS1, 21, 23, 24, 25) were toxic

Q: Which results are given for `COC(=O)[C@@H](N)CC[C@H](C#Cc1cccc(C(N)=O)c1)C[C@H]1O[C@@H](n2cnc3c(N)ncnc32)[C@H](O)[C@@H]1O` [compound 23, Methyl (2S,5S)-2-amino-5-(((2R,3S,4R,5R)-5-(6-amino-9H-purin-9-yl)-3,4-dihydroxytetrahydrofuran-2-yl)methyl)-7-(3-carbamoylphenyl)hept-6-ynoate]?
A: ability to decrease MNAM levels in U2OS cells (in words) [2]: the effects were modest; cytotoxicity to U2OS cells (in words) (U2OS cells): None of the compounds tested (NS1, 21, 23, 24, 25) were toxic

Q: Which results are given for `NC(=O)c1cccc(C#C[C@@H](CC[C@H](N)C(N)=O)C[C@H]2O[C@@H](n3cnc4c(N)ncnc43)[C@H](O)[C@@H]2O)c1` [compound 24, 3-((3S,6S)-6,7-diamino-3-(((2R,3S,4R,5R)-5-(6-amino-9H-purin-9-yl)-3,4-dihydroxytetrahydrofuran-2-yl)methyl)-7-oxohept-1-yn-1-yl)benzamide]?
A: ability to decrease MNAM levels in U2OS cells (in words) [2]: the effects were modest; cytotoxicity to U2OS cells (in words) (U2OS cells): None of the compounds tested (NS1, 21, 23, 24, 25) were toxic

Q: For `NC(=O)NCC[C@H](C#Cc1cccc(C(N)=O)c1)C[C@H]1O[C@@H](n2cnc3c(N)ncnc32)[C@H](O)[C@@H]1O` [compound 25, 3-((S)-3-(((2R,3S,4R,5R)-5-(6-amino-9H-purin-9-yl)-3,4-dihydroxytetrahydrofuran-2-yl)methyl)-5-ureidopent-1-yn-1-yl)benzamide], which “isothermal dose response CETSA, stabilization of NNMT (in words)” value (NNMT [1]) is on record?
A: Its value is “dose-dependent manner”.

Q: What about the “ability to decrease MNAM levels in U2OS cells (in words)” value [2] of the same compound?
A: Its value is “the effects were modest”.

Q: What about the “cytotoxicity to U2OS cells (in words)” value (U2OS cells) of the same compound?
A: The value was “None of the compounds tested (NS1, 21, 23, 24, 25) were toxic”.

Q: How did the “fold increase in inhibitory activity in terms of Ki compared to NS1” value (NNMT [3]; relative to NS1) turn out when `NC(=O)c1cccc(C#C[C@@H](CCC[C@H](N)C(=O)O)C[C@H]2O[C@@H](n3cnc4c(N)ncnc43)[C@H](O)[C@@H]2O)c1` [compound 26, (2S,6S)-2-amino-6-(((2R,3S,4R,5R)-5-(6-amino-9H-purin-9-yl)-3,4-dihydroxytetrahydrofuran-2-yl)methyl)-8-(3-carbamoylphenyl)oct-7-ynoic acid] was run?
A: Its value is ~ 2 fold.

Q: How did the “NNMT inhibition (in words)” value (NNMT [3]) turn out when `NC(=O)c1ccc(C#C[C@@H](CC[C@H](N)C(=O)O)C[C@H]2O[C@@H](n3cnc4c(N)ncnc43)[C@H](O)[C@@H]2O)cc1` [compound 27, (2S,5S)-2-amino-5-(((2R,3S,4R,5R)-5-(6-amino-9H-purin-9-yl)-3,4-dihydroxytetrahydrofuran-2-yl)methyl)-7-(4-carbamoylphenyl)hept-6-ynoic acid] was run?
A: The value was “much less potent than NS1”.

Q: `NC(=O)c1ccccc1C#C[C@@H](CC[C@H](N)C(=O)O)C[C@H]1O[C@@H](n2cnc3c(N)ncnc32)[C@H](O)[C@@H]1O` [compound 28, (2S,5S)-2-amino-5-(((2R,3S,4R,5R)-5-(6-amino-9H-purin-9-yl)-3,4-dihydroxytetrahydrofuran-2-yl)methyl)-7-(2-carbamoylphenyl)hept-6-ynoic acid] was tested. Which “NNMT inhibition (in words)” value (NNMT [3]) did it give?
A: Its value is “much less potent than NS1”.

Q: `Nc1ncnc2c1ncn2[C@@H]1O[C@H](C[C@@H](C#Cc2cccc(S(N)(=O)=O)c2)CC[C@H](N)C(=O)O)[C@@H](O)[C@H]1O` [compound 29, (2S,5S)-2-amino-5-(((2R,3S,4R,5R)-5-(6-amino-9H-purin-9-yl)-3,4-dihydroxytetrahydrofuran-2-yl)methyl)-7-(3-sulfamoylphenyl)hept-6-ynoic acid] was tested. Which “NNMT inhibition (in words)” value (NNMT [3]) did it give?
A: The value was “much less potent than NS1”.

Q: How did the “NNMT inhibition (in words)” value (NNMT [3]) turn out when `Nc1ncnc2c1ncn2[C@@H]1O[C@H](C[C@@H](C#Cc2ccc3c(c2)C(=O)NCC3)CC[C@H](N)C(=O)O)[C@@H](O)[C@H]1O` [compound 34, (2S,5S)-2-amino-5-(((2R,3S,4R,5R)-5-(6-amino-9H-purin-9-yl)-3,4-dihydroxytetrahydrofuran-2-yl)methyl)-7-(1-oxo-1,2,3,4-tetrahydroisoquinolin-7-yl)hept-6-ynoic acid] was run?
A: The value was “moderate NNMT inhibitors”.

Q: With `Nc1ncnc2c1ncn2[C@@H]1O[C@H](C[C@@H](C#Cc2ccc3c(c2)C(=O)NC3)CC[C@H](N)C(=O)O)[C@@H](O)[C@H]1O` [compound 35, (2S,5S)-2-amino-5-(((2R,3S,4R,5R)-5-(6-amino-9H-purin-9-yl)-3,4-dihydroxytetrahydrofuran-2-yl)methyl)-7-(3-oxoisoindolin-5-yl)hept-6-ynoic acid] as the compound, how does the “NNMT inhibition (in words)” value (NNMT [3]) read?
A: The value was “moderate NNMT inhibitors”.
